Patent US10011595B2 (Merck Sharp & Dohme Corp., priority 2014, dated 2018)

Target: human orexin-2 receptor (Homo sapiens (Human), UniProt O43614)
Assay: FLIPR Ca2+ Flux Assay, orexin-2 receptor
Format: cell-based
Conditions: CHO cells expressing the human orexin-2 receptor; agonist 70 pM Ala-6,12 orexin-A; read-out: hOX2R FLIPR IC50
Protocol: In a typical experiment the OX1 and OX2 receptor antagonistic activity of the compounds of the present invention was determined in accordance with the following experimental method. For intracellular calcium measurements, Chinese hamster ovary (CHO) cells expressing the rat orexin-1 receptor or the human orexin-2 receptor, are grown in Iscove's modified DMEM containing 2 mM L-glutamine, […], 1% hypoxanthine-thymidine supplement, 100 U/ml penicillin, 100 μg/ml streptomycin and 10% heat-inactivated fetal calf serum (FCS). The cells are seeded at 20,000 cells/well into Becton-Dickinson black 384-well clear bottom sterile plates coated with poly-D-lysine. All reagents were from GIBCO-Invitrogen Corp. The seeded plates are incubated overnight at 37° C. and 5% CO2. Ala-6,12 human orexin-A as the agonist is prepared as a 1 mM stock solution in 1% bovine serum albumin (BSA) and diluted in assay buffer (HBSS containing 20 mM HEPES, 0.1% BSA and 2.5 mM probenecid, pH7.4) for use in the assay at a final concentration of 70 pM. Test compounds are prepared as 10 mM stock solution in DMSO, then diluted in 384-well plates, first in DMSO, then assay buffer. On the day of the assay, cells are washed 3 times with 100 μl assay buffer and then incubated for 60 min (37° C., 5% CO2) in 60 μl assay buffer containing 1 μM Fluo-4AM ester, 0.02% pluronic acid, and 1% BSA. The dye loading solution is then aspirated and cells are washed 3 times with 100 μl assay buffer. 30 μl of that same buffer is left in each well. Within the Fluorescent Imaging Plate Reader (FLIPR, Molecular Devices), test compounds are added to the plate in a volume of 25 μl, incubated for 5 min and finally 25 μl of agonist is added. Fluorescence is measured for each well at 1 second intervals for 5 minutes and the height of each fluorescence peak is compared to the height of the fluorescence peak induced by 70 pM Ala-6,12 orexin-A with buffer in place of antagonist. For each antagonist, IC50 value (the concentration of compound needed to inhibit 50% of the agonist response) is determined. Alternatively, compound potency can be assessed by a radioligand binding assay (described in Bergman et. al. Bioorg. Med. Chem. Lett. 2008, 18, 1425-1430) in which the inhibition constant (Ki) is determined in membranes prepared from CHO cells expressing either the OX1 or OX2 receptor. The intrinsic orexin receptor antagonist activity of a compound which may be used in the present invention may be determined by these assays.

Chain of human orexin-2 receptor (O43614 whole entry): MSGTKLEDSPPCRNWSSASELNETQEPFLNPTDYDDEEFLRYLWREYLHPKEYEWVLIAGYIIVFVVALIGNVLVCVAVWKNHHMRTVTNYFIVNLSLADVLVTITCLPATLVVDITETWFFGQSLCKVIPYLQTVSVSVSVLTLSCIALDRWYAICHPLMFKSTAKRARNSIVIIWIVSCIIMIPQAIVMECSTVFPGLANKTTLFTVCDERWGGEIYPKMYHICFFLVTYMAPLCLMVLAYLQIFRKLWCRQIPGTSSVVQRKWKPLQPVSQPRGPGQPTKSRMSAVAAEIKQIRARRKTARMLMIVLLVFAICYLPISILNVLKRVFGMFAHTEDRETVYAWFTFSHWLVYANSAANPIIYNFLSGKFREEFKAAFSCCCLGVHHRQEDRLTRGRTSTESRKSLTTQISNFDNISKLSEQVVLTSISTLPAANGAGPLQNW

Row | Structure (SMILES) | IC50 [nM]
1 | CCN(CCN(C)c1cc(C#N)ccn1)C(=O)c1ccccc1-n1cc(C)nn1 [Example F-21, N-{2-[(4-cyanopyridin-2-yl)(methyl)amino]ethyl}-N-ethyl-2-(4-methyl-1H-1,2,3-triazol-1-yl)benzamide] | 341
2 | CCN(CCN(C)c1cc(C#N)ccn1)C(=O)c1ccccc1N1CCCC1 [Example F-22, N-{2-[(4-cyanopyridin-2-yl)(methyl)amino]ethyl}-N-ethyl-2-pyrrolidin-1-ylbenzamide] | 31.8
3 | CCN(CCN(C)c1cc(C#N)ccn1)C(=O)c1cccc2oc(=O)[nH]c12 [Example F-23, N-{2-[(4-cyanopyridin-2-yl)(methyl)amino]ethyl}-N-ethyl-2-oxo-2,3-dihydro-1,3-benzoxazole-4-carboxamide] | 10000
4 | CCN(CCN(C)c1cc(C#N)ccn1)C(=O)c1ccccc1-c1ncc[nH]1 [Example F-24, N-{2-[(4-cyanopyridin-2-yl)(methyl)amino]ethyl}-N-ethyl-2-(1H-imidazol-2-yl)benzamide] | 1630
5 | CCN(CCN(C)c1cc(C#N)ccn1)C(=O)c1ccccc1-n1cnnn1 [Example F-25, N-{2-[(4-cyanopyridin-2-yl)(methyl)amino]ethyl}-N-ethyl-2-(1H-tetrazol-1-yl)benzamide] | 4390
6 | CCN(CCN(C)c1cc(C#N)ccn1)C(=O)c1ccccc1C1(C#N)CC1 [Example F-26, 2-(1-cyanocyclopropyl)-N-{2-[(4-cyanopyridin-2-yl)(methyl)amino]ethyl}-N-ethylbenzamide] | 18.9
7 | CCN(CCN(C)c1cc(C#N)ccn1)C(=O)c1ccccc1-c1nc(C)no1 [Example F-27, N-{2-[(4-cyanopyridin-2-yl)(methyl)amino]ethyl}-N-ethyl-2-(3-methyl-1,2,4-oxadiazol-5-yl)benzamide] | 24
8 | CCN(CCN(C)c1cc(C#N)ccn1)C(=O)c1ccccc1-n1ccnn1 [Example F-28, N-{2-[(4-cyanopyridin-2-yl)(methyl)amino]ethyl}-N-ethyl-2-(1H-1,2,3-triazol-1-yl)benzamide] | 461
9 | CCOc1cccc(C(=O)N(CC)CCN(C)c2cc(C#N)ccn2)c1OC [Example F-29, N-{2-[(4-cyanopyridin-2-yl)(methyl)amino]ethyl}-3-ethoxy-N-ethyl-2-methoxybenzamide] | 10000
10 | CCN(CCN(C)c1cc(C#N)ccn1)C(=O)c1cc(F)ccc1-n1nccn1 [Example F-30, N-{2-[(4-cyanopyridin-2-yl)(methyl)amino]ethyl}-N-ethyl-5-fluoro-2-(2H-1,2,3-triazol-2-yl)benzamide] | 24.4
11 | CCN(CCN(C)c1cc(C#N)ccn1)C(=O)c1ccc(OCC(F)(F)F)nc1 [Example F-31, N-{2-[(4-cyanopyridin-2-yl)(methyl)amino]ethyl}-N-ethyl-6-(2,2,2-trifluoroethoxy)pyridine-3-carboxamide] | 10000
12 | CN(CCN(C)c1cc(C#N)ccn1)C(=O)c1ccccc1-n1nccn1 [Example G-1, N-(2-((4-cyanopyridin-2-yl)(methyl)amino)ethyl)-N-methyl-2-(2H-1,2,3-triazol-2-yl)benzamide] | 88
13 | CCCN(CCN(C)c1cc(C#N)ccn1)C(=O)c1ccccc1-n1nccn1 [Example G-4, N-(2-((4-cyanopyridin-2-yl)(methyl)amino)ethyl)-N-propyl-2-(2H-1,2,3-triazol-2-yl)benzamide] | 12.1
14 | CCCCN(CCN(C)c1cc(C#N)ccn1)C(=O)c1ccccc1-n1nccn1 [Example G-5, N-butyl-N-(2-((4-cyanopyridin-2-yl)(methyl)amino)ethyl)-2-(2H-1,2,3-triazol-2-yl)benzamide] | 19.8
15 | CN(CCN(Cc1ccccc1)C(=O)c1ccccc1-n1nccn1)c1cc(C#N)ccn1 [Example G-6, N-benzyl-N-(2-((4-cyanopyridin-2-yl)(methyl)amino)ethyl)-2-(2H-1,2,3-triazol-2-yl)benzamide] | 112
